Reference: patent US20180161314A1, “Methods for Treating Hyperuricemia and Related Diseases” (Ardea Biosciences, Inc., priority 2010, published 2018)

Test system: healthy adult subjects
Test: Drug 1 / febuxostat cross-over interaction study in healthy adult subjects (Examples 10-12)
Assay type: in vivo, human
Settings: for % serum uric acid change, Mean: drug 1 200 mg qd, febuxostat 40 mg qd; for Absolute sUA reduction from baseline, Intraday peak / Absolute sUA reduction from baseline, Trough / Percent sUA reduction from baseline, Intraday peak / Percent sUA reduction from baseline, Trough: febuxostat 40 mg alone
Source text: Study Objectives • To compare the multiple-dose pharmacokinetics of febuxostat in the absence versus presence of drug 1 co-administration. • To compare the multiple-dose pharmacokinetics of drug 1 in the absence versus presence of febuxostat co-administration. • To measure the effects of drug 1 and febuxostat, both alone and in combination, on serum uric acid concentrations and amounts of urate excreted into urine. • To evaluate the safety and tolerability of multiple-doses of drug 1 and febuxostat, both alone or in combination.
The study is a two or three-panel, placebo-controlled (for drug 1), double-blinded (for drug 1 and matched placebo), randomized, cross-over study with up to 54 healthy adult subjects. Each panel consisting of 18 subjects is sequentially enrolled, starting with Panel 1 (200 mg once daily dose of drug 1 or placebo), followed by Panel 2 (400 mg once daily dose of drug 1 or placebo), and followed by optional Panel 3 (100 mg to 600 mg once daily dose of drug 1 or placebo). The placebo control is included in this study to better assess safety and tolerability and the serum urate lowering effect of drug 1 in combination with febuxostat. Serum urate levels may be influenced by frequent blood draws and meal contents; therefore, the true effect on serum urate levels can be determined by correcting for placebo (subtract serum urate effect in placebo subjects from serum urate effect in active subjects).
Subjects in each panel are randomly assigned to one of two treatment sequences (Sequence A or B) after all Baseline (Day −1) procedures have been completed. Each treatment sequence within a panel consists of 9 subjects randomly assigned to receive drug 1 (6 of 9 subjects) or matching placebo (3 of 9 subjects) in a double-blinded fashion. For each treatment sequence, single-agent drug treatment is administered on Days 1 to 7 (either open-label febuxostat or double-blinded drug 1 or matched placebo by random assignment), followed by combination treatment on Days 8 to 14, and completing with the alternative single-agent drug treatment on Days 15 to 21, as follows (Panel 1 shown in FIG. 2):
Sequence A: Days 1-7: Febuxostat, 40 mg (once daily) • Days 8 to 14: drug 1, 200 mg or placebo in combination with febuxostat (once daily) • Days 15-21: drug 1, 200 mg, or placebo (once daily) Sequence B: Days 1-7: drug 1, 200 mg, or placebo (once daily) • Days 8 to 14: drug 1, 200 mg or placebo in combination with febuxostat (once daily) • Days 15-21: Febuxostat, 40 mg (once daily) […]
Serial blood samples for PK and PD assessments are collected up to 24 hours after dosing on Days 7, 14, and 21. Urine (total catch) for assays of drug 1, creatinine, and uric acid are collected starting on Day −1 (pre-treatment baseline) and after dosing on Days 7, 14, and 21. Final safety assessments are completed when subjects return to the clinic at 7±1 days after discharge from the clinic on Day 22 (Follow-Up visit on Day 29). The total volume of blood collected from each subject is approximately 518 mL.
Screening procedures to determine subject eligibility are performed 28 days before the first dose of study drug (Day 1). A total of up to 54 subjects enrolled in up to 3 panels consisting of 2 sequences each, with 9 subjects per sequence (18 subjects per panel). Subjects withdrawing after dosing are not replaced.
Subjects in Panel 1 receive a 200 mg dose of drug 1 or placebo once daily for 14 days and a 40 mg dose of febuxostat once daily for 14 days. Subjects in Panel 2 receive a 400 mg dose of drug 1 or placebo once daily for 14 days and a 40 mg dose of febuxostat once daily for 14 days. Subjects in Panel 3 receive a 100-600 mg dose of drug 1 or placebo once daily for 14 days and a 40 mg dose of febuxostat once daily for 14 days.
Subjects in Sequence A begin dosing on Day 1 with febuxostat and take their first dose of drug 1 or placebo on Day 8. […]

[1] = Week 2, Drug 1 200 mg + febuxostat 40 mg combo

**Q.** How did the “serum uric acid change from baseline, daily” value (shortened to “serum uric acid change … daily”) (Day 1, Drug 1 200 mg, FBX 40 mg) turn out when `Cc1nc(-c2ccc(OCC(C)C)c(C#N)c2)sc1C(=O)O` [Febuxostat, 2-(3-Cyano-4-isobutoxyphenyl)-4-methyl-1,3-thiazole-5-carboxylic acid, reference compound] was run?
**A.** The value was −6.4%.

**Q.** What about the “% serum uric acid change, Mean” value (Day 1) of the same compound?
**A.** Its value is −7.5%.

**Q.** And the “serum uric acid change … daily” value (Day 2, Drug 1 200 mg, FBX 40 mg)?
**A.** Its value is −25.7%.

**Q.** What about the “% serum uric acid change, Mean” value (Day 2) of the same compound?
**A.** The value was −23.8%.

**Q.** And the “serum uric acid change … daily” value (Day 3, Drug 1 200 mg, FBX 40 mg)?
**A.** The value was −33.6%.

**Q.** And the “% serum uric acid change, Mean” value (Day 3)?
**A.** Its value is −30.5%.

**Q.** What about the “serum uric acid change … daily” value (Day 4, Drug 1 200 mg, FBX 40 mg) of the same compound?
**A.** The value was −37.8%.

**Q.** And the “% serum uric acid change, Mean” value (Day 4)?
**A.** Its value is −34.5%.

**Q.** What about the “serum uric acid change … daily” value (Day 5, Drug 1 200 mg, FBX 40 mg) of the same compound?
**A.** The value was −37.9%.

**Q.** And the “% serum uric acid change, Mean” value (Day 5)?
**A.** Its value is −34.3%.

**Q.** And the “serum uric acid change … daily” value (Day 6, Drug 1 200 mg, FBX 40 mg)?
**A.** The value was −42.6%.

**Q.** What about the “% serum uric acid change, Mean” value (Day 6) of the same compound?
**A.** Its value is −38.1%.

**Q.** What about the “serum uric acid change … daily” value (Day 7, Drug 1 200 mg, FBX 40 mg) of the same compound?
**A.** Its value is −44.6%.

**Q.** What about the “% serum uric acid change, Mean” value (Day 7) of the same compound?
**A.** Its value is −39.0%.

**Q.** And the “serum uric acid change … daily” value (Day 8, Drug 1 200 mg, FBX 40 mg, alone or combined as labelled)?
**A.** The value was −42.7%.

**Q.** And the “% serum uric acid change, Mean” value (Day 8)?
**A.** Its value is −38.9%.

**Q.** What about the “serum uric acid change … daily” value (Day 9, Drug 1 200 mg, FBX 40 mg, alone or combined as labelled) of the same compound?
**A.** Its value is −38.1%.

**Q.** What about the “serum uric acid change … daily” value (Day 10, Drug 1 200 mg, FBX 40 mg, alone or combined as labelled) of the same compound?
**A.** The value was −40%.

**Q.** What about the “serum uric acid change … daily” value (Day 11, Drug 1 200 mg, FBX 40 mg, alone or combined as labelled) of the same compound?
**A.** The value was −39.2%.

**Q.** And the “serum uric acid change … daily” value (Day 12, Drug 1 200 mg, FBX 40 mg, alone or combined as labelled)?
**A.** Its value is −36.9%.

**Q.** What about the “serum uric acid change … daily” value (Day 13, Drug 1 200 mg, FBX 40 mg, alone or combined as labelled) of the same compound?
**A.** Its value is −36.8%.

**Q.** What about the “serum uric acid change … daily” value (Day 14, Drug 1 200 mg, FBX 40 mg, alone or combined as labelled) of the same compound?
**A.** The value was −42%.

**Q.** And the “serum uric acid change … daily” value (Day 15, Drug 1 200 mg, FBX 40 mg, alone or combined as labelled)?
**A.** The value was −39.1%.

**Q.** And the “serum uric acid change … daily” value (Day 15, FBX 40 mg after combo)?
**A.** The value was −62.3%.

**Q.** What about the “serum uric acid change … daily” value (Day 16, Drug 1 200 mg alone (week 3), FBX 40 mg alone) of the same compound?
**A.** The value was −36.5%.

**Q.** What about the “serum uric acid change … daily” value (Day 16, FBX 40 mg after combo) of the same compound?
**A.** The value was −50.9%.

**Q.** What about the “serum uric acid change … daily” value (Day 17, Drug 1 200 mg alone (week 3), FBX 40 mg alone) of the same compound?
**A.** The value was −35.8%.

**Q.** What about the “serum uric acid change … daily” value (Day 17, FBX 40 mg after combo) of the same compound?
**A.** Its value is −45.6%.

**Q.** What about the “serum uric acid change … daily” value (Day 18, Drug 1 200 mg alone (week 3), FBX 40 mg alone) of the same compound?
**A.** Its value is −36.3%.

**Q.** And the “serum uric acid change … daily” value (Day 18, FBX 40 mg after combo)?
**A.** Its value is −45.7%.

**Q.** And the “serum uric acid change … daily” value (Day 19, Drug 1 200 mg alone (week 3), FBX 40 mg alone)?
**A.** Its value is −33.6%.

**Q.** What about the “serum uric acid change … daily” value (Day 19, FBX 40 mg after combo) of the same compound?
**A.** Its value is −41%.

**Q.** What about the “serum uric acid change … daily” value (Day 20, Drug 1 200 mg alone (week 3), FBX 40 mg alone) of the same compound?
**A.** Its value is −34.3%.

**Q.** What about the “serum uric acid change … daily” value (Day 20, FBX 40 mg after combo) of the same compound?
**A.** Its value is −42.9%.

**Q.** And the “serum uric acid change … daily” value (Day 21, Drug 1 200 mg alone (week 3), FBX 40 mg alone)?
**A.** The value was −37.6%.

**Q.** What about the “serum uric acid change … daily” value (Day 21, FBX 40 mg after combo) of the same compound?
**A.** The value was −49.1%.

**Q.** What about the “serum uric acid change … daily” value (Day 22, Drug 1 200 mg alone (week 3), FBX 40 mg alone) of the same compound?
**A.** Its value is −35.2%.

**Q.** And the “serum uric acid change … daily” value (Day 22, FBX 40 mg after combo)?
**A.** Its value is −45.7%.

**Q.** What about the “Absolute sUA reduction from baseline, Intraday peak” value (Week 1, Drug 1 200 mg alone) of the same compound?
**A.** Its value is -3.4 mg/dL.

**Q.** What about the “Absolute sUA reduction from baseline, Trough” value (Week 1, Drug 1 200 mg alone) of the same compound?
**A.** The value was -2.8 mg/dL.

**Q.** And the “Percent sUA reduction from baseline, Intraday peak” value (Week 1, Drug 1 200 mg alone)?
**A.** The value was −55.3%.

**Q.** And the “Percent sUA reduction from baseline, Trough” value (“Percent sUA reduction … Trough” below) (Week 1, Drug 1 200 mg alone)?
**A.** Its value is −45.4%.

**Q.** And the “Absolute sUA reduction from baseline, Intraday peak” value [1]?
**A.** The value was -3.1 mg/dL.

**Q.** And the “Absolute sUA reduction from baseline, Trough” value [1]?
**A.** The value was -2.6 mg/dL.

**Q.** And the “Percent sUA reduction from baseline, Intraday peak” value [1]?
**A.** Its value is −50.1%.

**Q.** What about the “Percent sUA reduction … Trough” value [1] of the same compound?
**A.** The value was −41.2%.

**Q.** And the “Absolute sUA reduction from baseline, Intraday peak” value (Week 3, Drug 1 200 mg alone)?
**A.** The value was -3.3 mg/dL.

**Q.** What about the “Absolute sUA reduction from baseline, Trough” value (Week 3, Drug 1 200 mg alone) of the same compound?
**A.** Its value is -2.7 mg/dL.

**Q.** And the “Percent sUA reduction from baseline, Intraday peak” value (Week 3, Drug 1 200 mg alone)?
**A.** The value was −49.0%.

**Q.** What about the “Percent sUA reduction … Trough” value (Week 3, Drug 1 200 mg alone) of the same compound?
**A.** The value was −42.1%.
